Our source for the IC50 values is PubChem BioAssay AID1645863 (Buhrlage Lab, Dana-Farber Cancer Institute and Novartis …, 2021).

One may read the IC50 as the concentration that gives 50% inhibition.

SMILES strings stand for the structures. The source made the active and inactive calls. No rule for the calls is given here.

Chain of Ubiquitin carboxyl-terminal hydrolase 10 (Homo sapiens) (Q14694 whole entry, looked up): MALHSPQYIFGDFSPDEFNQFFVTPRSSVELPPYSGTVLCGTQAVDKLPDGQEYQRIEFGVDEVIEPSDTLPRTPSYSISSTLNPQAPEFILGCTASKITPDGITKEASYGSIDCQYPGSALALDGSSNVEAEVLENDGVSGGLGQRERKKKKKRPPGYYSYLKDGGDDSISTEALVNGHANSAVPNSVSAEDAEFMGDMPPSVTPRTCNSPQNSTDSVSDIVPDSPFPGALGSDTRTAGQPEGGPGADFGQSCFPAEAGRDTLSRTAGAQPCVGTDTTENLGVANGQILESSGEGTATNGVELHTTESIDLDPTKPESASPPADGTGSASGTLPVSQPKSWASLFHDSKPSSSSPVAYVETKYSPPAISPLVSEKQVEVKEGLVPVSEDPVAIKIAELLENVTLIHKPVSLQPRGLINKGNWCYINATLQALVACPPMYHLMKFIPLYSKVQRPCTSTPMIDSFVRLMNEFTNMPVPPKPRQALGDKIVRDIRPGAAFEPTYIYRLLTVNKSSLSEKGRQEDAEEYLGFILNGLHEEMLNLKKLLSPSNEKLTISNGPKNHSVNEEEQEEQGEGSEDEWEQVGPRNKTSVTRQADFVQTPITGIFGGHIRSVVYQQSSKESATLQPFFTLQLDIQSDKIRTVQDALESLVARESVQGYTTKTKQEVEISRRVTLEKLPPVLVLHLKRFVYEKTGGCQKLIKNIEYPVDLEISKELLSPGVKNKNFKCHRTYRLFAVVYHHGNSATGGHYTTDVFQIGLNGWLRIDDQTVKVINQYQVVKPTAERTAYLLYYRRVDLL

The test concerns the target Ubiquitin carboxyl-terminal hydrolase 10 (Homo sapiens) (UniProt Q14694). Description: ubiquitin-specific protease 10 DUB inhibitors, concentration-effect, biochemical, verification of primary screen actives (AID 1645863).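 Also: potency values describe inhibition of USP10 cleavage of a fluorogenic ubiquitin substrate.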 Conditions: USP10 deubiquitinase enzymatic assay.
As to `CCCn1cc(-c2nc(-c3ccccn3)no2)c(=O)c2ccccc21`, the IC50 is > 40 µM (inactive). With `CCn1cc2c(n1)c(=O)n(Cc1ccccc1)c(=O)n2CC(=O)Nc1ccc(C)cc1C` the figure was 12.1 µM; with `C/C=C/C=C/[C@@H]1Cc2cc(O)cc(O)c2O1`, 35.6 µM.

Take `COc1ccc(NS(=O)(=O)c2cc(NC(=O)/C=C/c3ccco3)ccc2N2CCCC2)cc1`: the IC50 was > 40 µM (inactive). With `O=C1CC(c2ccccc2)n2ncnc2N1` (stereo not given) the figure was > 40 µM (inactive). `O=C(c1ccc2cc[nH]c2c1)N1CCC(Nc2cccnc2)C1` (stereo not given): the IC50 was > 40 µM (inactive). On to `O=c1c2ccccc2nc(CSc2cccc(Cl)c2Cl)n1-c1ccccc1`, for which the IC50 is > 40 µM (inactive).

As for `O=C(/C=C/c1c(F)cccc1Cl)N1CCc2ccccc2C1`, the IC50 was > 40 µM (inactive). For `CC(CCc1ccccc1)NC(=O)Cn1c(=O)c2cccn2c2ccccc21` (stereo not given) the value was > 40 µM (inactive); for `Fc1cccc(Nc2ncnc3c2oc2ccccc23)c1`, > 40 µM (inactive).

Turning to `COc1cc(OC)cc(N2C(=O)N(CC(=O)c3ccc(Br)cc3)c3ccccc3S2(=O)=O)c1`, the IC50 was 13.8 µM. With `Cc1ccc(Cn2cc(-c3noc(C(=O)Nc4cc(F)ccc4F)n3)nn2)cc1`, the IC50 was 26.8 µM.

Take `Cc1cccc2nc(CSc3nc4ccc([N+](=O)[O-])cc4[nH]3)cn12`: the IC50 is 19.8 µM. With `COc1cc(-c2ccccc2)c(O)c(O)c1-c1ccccc1` the figure was 14 µM; with `Cc1sc2ccn(C)c(=O)c2c1C(=O)NC1CCCC1`, 27.5 µM; with `COCCCN1CCS(=O)(=O)c2c(Cl)c(F)nc(Oc3ccccc3F)c21`, > 40 µM (inactive). In the case of `Cc1ccc(NC(=O)Nc2ccc(C)n(CC(=O)Nc3ccc(C)cc3C)c2=O)cc1`, the IC50 is 21.9 µM. Consider `CCc1ccc(OCCn2c(CCNC(=O)C3CCCCC3)nc3ccccc32)cc1`, for which the IC50 was > 40 µM (inactive). With `O=c1[nH]c(C2CCN(S(=O)(=O)c3ccc(S(=O)(=O)NC4CC4)cc3)CC2)nc2c1nnn2Cc1c(Cl)cccc1Cl`, the IC50 is 27.5 µM. Consider `CCCCCCCC1OC(=O)Cc2cc(O)c(O)c(O)c21` (stereo not given), for which the IC50 is 3.3 µM. Take `CCOc1ccc(S(=O)(=O)Nc2ccc[nH]c2=O)cc1`: the IC50 was > 40 µM (inactive). With `O=C(CCn1c(=O)c2ccccc2n(CC(=O)OCc2ccccc2)c1=O)NCc1ccc2c(c1)OCO2` the figure was 17.5 µM; with `Cc1cccc(OCC2=NN3C(=N)/C(=C\c4cc(C)n(-c5cccc(F)c5)c4C)C(=O)N=C3S2)c1`, > 40 µM (inactive). For `CCCCCCCc1cc(OC(=O)c2c(CCCCCCC)cc(O)cc2O[C@@H]2O[C@H](CO)[C@@H](O)[C@H](O)[C@H]2O)cc(O)c1C(=O)O` the value was 3.94 µM; for `O=C(Nc1cc(F)c2nc(N3CCOCC3)ccc2c1)C1CC1`, > 40 µM (inactive). For `O=C(Nc1ccccc1Cc1ccccc1)c1nc2n(n1)-c1ccccc1S(=O)(=O)N2` the value was 25.3 µM. For `Cc1ccc(NC(=O)c2cc(-c3ccccn3)nc3c(Cl)cccc23)nc1`, the IC50 is > 40 µM (inactive). As for `Cc1ccc(S(=O)(=O)NCc2ccc(C(=O)NCCc3ccc(S(N)(=O)=O)cc3)cc2)cc1`, the IC50 is > 40 µM (inactive). With `Cc1ccc([N+](=O)[O-])cc1S(=O)(=O)Nc1cc2sc(=O)oc2c2ccccc12` the figure was > 40 µM (inactive); with `COC(=O)c1ccc2c(=O)n(CCCCCC(=O)NCCc3ccccc3Cl)c(=O)[nH]c2c1`, > 40 µM (inactive); with `O=C(CCCn1c(=O)c2sccc2n(CC(=O)NCCC2=CCCCC2)c1=O)NCc1ccc2c(c1)OCO2`, 13.8 µM. With `Cc1cc(C)c(O)c(-c2cc(C(=O)Nc3ccccc3Cl)[nH]n2)c1` the figure was > 40 µM (inactive); with `CC(C)c1nnc(NC(=O)C2CC(=O)N(CCc3ccc(F)cc3)C2)s1` (stereo not given), > 40 µM (inactive). For `COc1ccc(NC(=O)Cn2cc(C(=O)c3ccc(Cl)cc3)c(=O)c3cc(F)ccc32)cc1` the value was 13.2 µM; for `CCc1nnc(C(=O)Nc2ccc(C(=O)NCc3ccc(OC(C)C)cc3)cc2)s1`, > 40 µM (inactive); for `N#Cc1cccnc1N1CCN(C(=O)Nc2cccc3ccccc23)CC1`, > 40 µM (inactive). For `Cc1nnc(-c2cc(S(=O)(=O)N3CCN(c4ccc(F)cc4)CC3)c[nH]2)o1`, the IC50 was > 40 µM (inactive). On to `CC1CCCN(S(=O)(=O)c2ccc(-n3cnc(C(=O)NC4CC4)c3)nc2)C1` (stereo not given), for which the IC50 was 23.2 µM.

As to `COc1cn(-c2ccc(F)cc2)nc1C(=O)Nc1ccc(Cl)cc1Cl`, the IC50 was 16.2 µM.

On to `O=C(NCc1ccco1)c1ccc(Cn2c(SCc3ccccc3)nc3ccncc32)cc1`, for which the IC50 is > 40 µM (inactive). `Cc1ccc(S(=O)(=O)Nc2cccc(Cl)c2)cc1NC(=O)CCC(=O)c1ccc(Cl)cc1`: the IC50 was > 40 µM (inactive). In the case of `Cc1cc(C)c(NC(=O)Cc2sc(Nc3ccc(C)c(C)c3)nc2O)c(C)c1`, the IC50 was > 40 µM (inactive). For `CSc1ccc(CNC(=O)Cn2nc(C)c3c(C)n(-c4ccccc4)nc3c2=O)cc1` the value was 10.3 µM. With `Cc1cc(Cl)ccc1NC(=O)c1cc(-c2cccnc2)n[nH]1` the figure was > 40 µM (inactive). For `O=C(Nc1ccccc1-c1nc(-c2ccccn2)no1)c1cc(Cl)ccc1Cl` the value was > 40 µM (inactive). Regarding `CCc1nc(SCC(=O)Nc2ccc(Cl)c(Cl)c2)c2oc3ccccc3c2n1`, the IC50 is 39.4 µM. For `CCOc1ccc(NC(=O)Cn2c(=O)n(CCCCCC(=O)NCc3ccc(F)cc3)c(=O)c3sccc32)cc1` the value was 17.7 µM; for `Cn1nc(Cl)c(Cl)c1Oc1ccc(S(=O)(=O)Nc2ccc(Oc3ccc(C(F)(F)F)cn3)c(Cl)c2)cc1`, 13 µM; for `O=C(Cn1ccc2ccn(Cc3ccccc3)c2c1=O)Nc1ccccc1Cl`, > 40 µM (inactive). As for `OC1CCCN(c2ncc(-c3cnccn3)c(-c3cccs3)n2)C1` (stereo not given), the IC50 is > 40 µM (inactive). As to `CCn1cc2c(n1)c(=O)n(Cc1ccccc1)c(=O)n2CC(=O)Nc1ccc(OC)cc1`, the IC50 is 35.9 µM. For the compound `Cc1ncc(CO)c2c1Oc1nc(-c3cccc(Cl)c3)nc(SCC(=O)N3CCCCC3)c1C2`, the IC50 is > 40 µM (inactive).

Take `COc1ccc(-c2cc(-c3ccccc3)nc(SCC(N)=O)c2C#N)cc1OC`: the IC50 was 21.6 µM. For `Cc1ccccc1NC(=O)Cc1csc2nc(-c3ccc(F)cc3)cn12` the value was > 40 µM (inactive); for `COc1ccc(NC(=O)Cn2c(=O)n(CCC(=O)NCc3ccccc3)c(=O)c3sccc32)cc1Cl`, > 40 µM (inactive); for `Cc1ccc(C)c(S(=O)(=O)N2CCN(c3ccc4nnc(-c5ccco5)n4n3)CC2)c1`, > 40 µM (inactive).

With `Cc1ccccc1-c1noc(-c2ccccc2OCC(=O)NC(C)C)n1`, the IC50 was > 40 µM (inactive).

On to `COc1ccc(-c2cc3nc([C@H](C)NC(=O)Cc4ccccc4C)nn3cn2)cc1`, for which the IC50 was > 40 µM (inactive). With `O=C(CSc1oc(-c2ccc(F)cc2)nc1S(=O)(=O)c1ccc(F)cc1)Nc1ccc(F)cc1` the figure was 34.7 µM; with `COc1ccccc1Nc1ncc(C(=O)NCCc2ccc(Cl)cc2)c2ccccc12`, > 40 µM (inactive).
